Data on 13 molecules can be found in PubChem BioAssay (NCI).

Among the test systems are NCI/ADR-RES ovarian; LOX IMVI melanoma; MOLT-4 leukemia; SW-620 colon; NCI-H460 lung; UACC-62 melanoma; NCI-H23 lung; SK-MEL-2 melanoma; SF-268 CNS; SF-295 CNS; SN12C renal; K-562 leukemia; ACHN renal; U251 CNS; PC-3 prostate; SNB-75 CNS; OVCAR-3 ovarian; COLO 205 colon; CCRF-CEM leukemia; HCC-2998 colon.
Holding throughout (assay): NCI-60 cell line screen, 48 h

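Cultured in 96-well plates, cells were exposed to test compound for 48 hours across five concentrations. TGI is the concentration that stops growth completely.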 A value given as a limit tells only on which side of the number the result lay.

Regarding `CCC1c2[nH]c3ccccc3c2C[C@H]2C(=O)NC(CCCCNC(=O)OC(C)(C)C)C(=O)N12` (stereo not given in full), the TGI is 74.6 µM with NCI/ADR-RES ovarian; 54.7 µM with LOX IMVI melanoma; 43.5 µM with MOLT-4 leukemia; above 100 µM with SW-620 colon; above 100 µM in the test on NCI-H460 lung; 49.2 µM in the test on UACC-62 melanoma. The TGI is 59.6 µM in the test with NCI-H23 lung; 57.8 µM in the test with SK-MEL-2 melanoma; above 100 µM with SF-268 CNS; 62.4 µM in the test on SF-295 CNS; above 100 µM in the test on SN12C renal; above 100 µM with K-562 leukemia. In addition, the TGI with ACHN renal is above 100 µM; in the test with U251 CNS, above 100 µM; in the test with PC-3 prostate, 58.7 µM; in the test with SNB-75 CNS it was 58.2 µM; in the test on OVCAR-3 ovarian it was 63.4 µM; in the test with COLO 205 colon it was 66.9 µM.
`CCC(CCN)(CCN)[N+](=O)[O-]`: the TGI in the test with NCI/ADR-RES ovarian, in the test with MOLT-4 leukemia, with SW-620 colon, in the test on NCI-H460 lung, in the test with UACC-62 melanoma and in the test on SK-MEL-2 melanoma was above 100 µM in each case. For the same molecule, the TGI with SF-268 CNS, with SF-295 CNS, with SN12C renal, in the test with K-562 leukemia, in the test on U251 CNS and with PC-3 prostate was above 100 µM each time. Further, the TGI in the test on SNB-75 CNS and in the test on COLO 205 colon was above 100 µM throughout.
On to `Cc1cn([C@H]2C[C@@H]3[C@@H](COC(CCl)N3O)O2)c(=O)[nH]c1=O` (stereo not given in full), for which the TGI in the test on NCI/ADR-RES ovarian, in the test with LOX IMVI melanoma, in the test on MOLT-4 leukemia, in the test on SW-620 colon, in the test with NCI-H460 lung and in the test with UACC-62 melanoma was above 100 µM each time. The TGI with SK-MEL-2 melanoma, with SF-268 CNS, in the test on SF-295 CNS, with SN12C renal, in the test with K-562 leukemia and in the test with U251 CNS was above 100 µM in each case. Besides, the TGI in the test with CCRF-CEM leukemia, with PC-3 prostate, in the test with SNB-75 CNS, in the test on OVCAR-3 ovarian and with COLO 205 colon was above 100 µM each time.
On to `COC(=O)C(Cc1c(C2Nc3ccccc3C2CC(NC(C)=O)C(=O)OC)[nH]c2ccccc12)NC(C)=O` (stereo not given), for which the TGI in the test on NCI/ADR-RES ovarian, in the test with LOX IMVI melanoma, with MOLT-4 leukemia, in the test with SW-620 colon, with NCI-H460 lung and with UACC-62 melanoma was above 100 µM throughout. Also, the TGI in the test on NCI-H23 lung, in the test on SK-MEL-2 melanoma, in the test with SF-268 CNS, in the test on SF-295 CNS, in the test on SN12C renal and in the test on K-562 leukemia was above 100 µM in each case. Besides, the TGI with ACHN renal, in the test on U251 CNS, in the test with CCRF-CEM leukemia, in the test on PC-3 prostate, in the test on SNB-75 CNS and in the test with OVCAR-3 ovarian was above 100 µM in each case. Further, in the test with COLO 205 colon, the TGI is above 100 µM.
In the case of `NCCCCN(CCCN)Cc1ccc2ccccc2c1`, the TGI is above 100 µM in the test on NCI/ADR-RES ovarian; above 100 µM in the test on LOX IMVI melanoma; above 100 µM in the test on MOLT-4 leukemia; above 100 µM in the test with SW-620 colon; 55.2 µM with NCI-H460 lung; above 100 µM in the test on UACC-62 melanoma. The TGI with NCI-H23 lung was above 100 µM; with SF-268 CNS it was 44 µM; in the test on SF-295 CNS it was above 100 µM; in the test with SN12C renal, 46.3 µM; with K-562 leukemia it was above 100 µM; in the test with ACHN renal it was 53.8 µM. Further, the TGI in the test with U251 CNS is above 100 µM; in the test on CCRF-CEM leukemia, above 100 µM; in the test with HCC-2998 colon it was 27.3 µM; in the test on SNB-75 CNS, 22.8 µM; in the test on COLO 205 colon it was above 100 µM.
Consider `CC(C)[Si](OC1=C(C(=O)N(C)c2ccccc2Cl)CCCCC1)(C(C)C)C(C)C`, for which the TGI in the test with NCI/ADR-RES ovarian, in the test on LOX IMVI melanoma, with MOLT-4 leukemia, with SW-620 colon, with NCI-H460 lung and with NCI-H23 lung was above 100 µM each time. Also, the TGI with SF-268 CNS, in the test with SF-295 CNS, in the test on SN12C renal, in the test with ACHN renal, with U251 CNS and in the test with SNB-75 CNS was above 100 µM throughout. The TGI in the test on OVCAR-3 ovarian and with COLO 205 colon was above 100 µM each time.
Consider `O=C(c1nc2ccc(Cl)cc2[nH]c1=O)C(O)c1ccc2c(c1)OCO2` (stereo not given), for which the TGI in the test with LOX IMVI melanoma, in the test on MOLT-4 leukemia, in the test on SW-620 colon, in the test with NCI-H460 lung, in the test on UACC-62 melanoma and in the test with NCI-H23 lung was above 100 µM each time. Besides, the TGI with SK-MEL-2 melanoma, with SF-268 CNS, in the test on SF-295 CNS, with K-562 leukemia, with ACHN renal and in the test on U251 CNS was above 100 µM in each case. In addition, the TGI with CCRF-CEM leukemia, with HCC-2998 colon, with SNB-75 CNS and with COLO 205 colon was above 100 µM each time.
With `CC(=O)OC1CC2C(C)(C)C(=O)C=C[C@]2(C)C2CCC3(C)C(c4ccoc4)[C@@H](O)[C@H]4O[C@]43[C@]12C` (stereo not given in full), the TGI in the test on LOX IMVI melanoma came out at 31.3 µM; in the test on MOLT-4 leukemia it was 88.8 µM; in the test on SW-620 colon, 35.4 µM; in the test on NCI-H460 lung, 36.5 µM; with UACC-62 melanoma, 32.5 µM; in the test on NCI-H23 lung it was 34.4 µM. Also, the TGI with SK-MEL-2 melanoma was found to be 39.6 µM; in the test with SF-268 CNS, 51.8 µM; in the test on SF-295 CNS, 42.5 µM; with SN12C renal it was 34.1 µM; in the test with K-562 leukemia, 39.5 µM; in the test with ACHN renal, 50 µM. For the same molecule, the TGI with U251 CNS is 27.8 µM; with CCRF-CEM leukemia, 54 µM; in the test on HCC-2998 colon, 29.6 µM; with SNB-75 CNS, 57.3 µM; in the test on OVCAR-3 ovarian it was 31.8 µM; in the test with COLO 205 colon it was 37.6 µM.
For the molecule `COC(=O)c1cc(C)ccc1C1CN=NC12Cc1cccc(C)c1C2=O` (stereo not given), the TGI in the test with NCI/ADR-RES ovarian is 77.9 µM; with LOX IMVI melanoma it was 53 µM; with MOLT-4 leukemia it was 54.7 µM; with SW-620 colon, above 100 µM; in the test with NCI-H460 lung it was 72.3 µM; with NCI-H23 lung, above 100 µM. Further, the TGI with SF-268 CNS, in the test on SF-295 CNS, with SN12C renal, with K-562 leukemia, in the test on ACHN renal and in the test with U251 CNS was above 100 µM each time. Also, the TGI was 99 µM with CCRF-CEM leukemia, above 100 µM with HCC-2998 colon, above 100 µM in the test on SNB-75 CNS and above 100 µM in the test on OVCAR-3 ovarian.
As to `COc1ccc2nc3cc([N+](=O)[O-])ccc3c(Nc3ccc(S(=O)(=O)N=C(N)N)cc3)c2c1`, the TGI in the test with LOX IMVI melanoma was above 100 µM; in the test with MOLT-4 leukemia, 14.7 µM; in the test with SW-620 colon, above 100 µM; in the test with NCI-H460 lung it was 25 µM; in the test on UACC-62 melanoma, 46.9 µM; in the test on NCI-H23 lung, above 100 µM. Moreover, the TGI in the test with SK-MEL-2 melanoma was 44.4 µM; in the test on SF-268 CNS, above 100 µM; in the test on SF-295 CNS, above 100 µM; with SN12C renal, above 100 µM; with K-562 leukemia it was 63.1 µM; in the test on ACHN renal it was above 100 µM. The TGI in the test with U251 CNS is above 100 µM; with CCRF-CEM leukemia, 36.5 µM; in the test on HCC-2998 colon, 39.3 µM; with PC-3 prostate it was above 100 µM; in the test with OVCAR-3 ovarian, 72.6 µM; in the test with COLO 205 colon, 70.6 µM.
`O=P(c1ccccc1)(c1ccccc1)c1ccc2c(c1)OCCOCCOCCOCCO2`: the TGI with LOX IMVI melanoma, in the test on MOLT-4 leukemia, in the test with SW-620 colon, with NCI-H460 lung, with UACC-62 melanoma and in the test with NCI-H23 lung was above 100 µM in each case. Besides, the TGI in the test on SF-268 CNS, with SF-295 CNS, in the test on SN12C renal, with K-562 leukemia, in the test on ACHN renal and in the test with CCRF-CEM leukemia was above 100 µM throughout. The TGI in the test with HCC-2998 colon, in the test on PC-3 prostate, in the test with SNB-75 CNS and in the test with COLO 205 colon was above 100 µM throughout.
Turning to `c1ccc2sc(C3(N4CCC5(CC4)OCCO5)CCCCC3)cc2c1`, the TGI with NCI/ADR-RES ovarian, in the test with LOX IMVI melanoma, in the test on MOLT-4 leukemia, in the test with SW-620 colon, in the test with NCI-H460 lung and in the test on UACC-62 melanoma was above 100 µM in each case. Also, the TGI with NCI-H23 lung, in the test on SF-268 CNS, in the test on SF-295 CNS, in the test on SN12C renal, in the test on K-562 leukemia and with ACHN renal was above 100 µM each time. Also, the TGI was above 100 µM in the test on CCRF-CEM leukemia; 90.9 µM with HCC-2998 colon; above 100 µM in the test with SNB-75 CNS; above 100 µM in the test on OVCAR-3 ovarian; above 100 µM in the test with COLO 205 colon.
Consider `CC1=CC(=O)c2c(C=O)c(O)c(O)c(C(C)C)c2C1=O`, for which the TGI in the test on LOX IMVI melanoma was 27.6 µM; in the test with MOLT-4 leukemia it was 66.3 µM; in the test on NCI-H460 lung, above 74.1 µM; with UACC-62 melanoma, 56.4 µM; in the test on NCI-H23 lung, above 85.5 µM; with SK-MEL-2 melanoma, 57.5 µM. For the same molecule, the TGI with SF-268 CNS is 77.2 µM; in the test on SN12C renal, above 100 µM; with K-562 leukemia, above 100 µM; in the test with ACHN renal, 32.6 µM; in the test with U251 CNS, 47.4 µM; in the test on CCRF-CEM leukemia it was 60.1 µM. For the same molecule, the TGI with HCC-2998 colon is above 94.5 µM; with SNB-75 CNS, above 100 µM; with COLO 205 colon, 57.4 µM.
